The results in this text go back to PubChem BioAssay (NCI).

Structures are written as SMILES.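 The compound was tested at five concentrations on cells cultured in 96-well plates, with a 48-hour exposure period. Here, GI50 denotes the concentration required for 50% inhibition of growth. At the TGI there is no net growth.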 A value given as a limit tells only on which side of the number the result lay.

Test in all cases: NCI-60 cell line screen, 48 h
Assay [1] concerns NCI-H23 lung.
For assay [2], the system named is SF-268 CNS.
The test system of assay [3] is A549 NSCLC.
Assay [4] relates to UACC-62 melanoma.
The subject of assay [5] is SNB-75 CNS.
Assay [6] relates to BT-549 breast.
The subject of assay [7] is MDA-MB-231 breast.
The subject of assay [8] is SW-620 colon.

For the compound `O=C(c1c(F)c(F)c(F)c(F)c1F)c1c(F)c(F)c(F)c(F)c1F`, the TGI in assay [1] came to 7.87 µM; in assay [2], 7.8 µM; in assay [3], 15.4 µM; in assay [4] it was 3.97 µM; in assay [5], 3.48 µM; in assay [6], 6.68 µM. Also, the TGI in assay [7] was found to be 3.46 µM; in assay [8], 60.6 µM.

As for `COc1cc2nc(N3CCCN(C)CC3)nc(NC3CCN(Cc4ccccc4)CC3)c2cc1OC`, the GI50 in assay [1] is 5.71 µM; in assay [2], 2.72 µM; in assay [3], 2.94 µM; in assay [4], 1.89 µM; in assay [5], 1.4 µM; in assay [6], 1.94 µM. The GI50 in assay [7] is 1.68 µM; in assay [8], 2.96 µM. Besides, the TGI was 19.7 µM in assay [1]; 8.65 µM in assay [2]; 10.2 µM in assay [3]; 3.56 µM in assay [4]; 4.55 µM in assay [5]; 4.68 µM in assay [6]. Also, the TGI in assay [7] was 4.75 µM; in assay [8], 9.64 µM.

For the compound `COc1ccc2c(c1)CCC1C2CC[C@@]2(C)C1CC[C@@H]2NC(=O)Cc1ccc(O)c(O)c1` (some centres undefined), the GI50 in assay [1] was 11.9 µM; in assay [2] it was 7.48 µM; in assay [3] it was 14.6 µM; in assay [4], 4.14 µM; in assay [5], 3.44 µM; in assay [6], 9.66 µM. Further, the GI50 in assay [7] is 4.05 µM; in assay [8], 6.41 µM. The TGI came out at 27.6 µM in assay [1]; 25.3 µM in assay [2]; 29.9 µM in assay [3]; 14.8 µM in assay [4]; 12.5 µM in assay [5]; 25.5 µM in assay [6]. Also, the TGI in assay [7] was 16.9 µM; in assay [8], 25 µM.

As for `COc1ccccc1C#Cc1ccccc1C#Cc1ccc(OCCCCCCOc2ccccc2C#Cc2ccccc2C#Cc2ccccc2OC)cc1`, the GI50 in assay [1], in assay [2], in assay [3], in assay [4], in assay [5] and in assay [6] was over 100 µM throughout. Moreover, the GI50 in assay [7] and in assay [8] was over 100 µM throughout. The TGI in assay [1], in assay [2], in assay [3], in assay [4], in assay [5] and in assay [6] was over 100 µM throughout. In addition, the TGI in assay [7] and in assay [8] was over 100 µM each time.

`Cc1ccc2c(C(C[N+](=O)[O-])c3ccccc3)c(-c3ccccc3)[nH]c2c1` (centres undefined): the GI50 is 47 µM in assay [1]; 73.3 µM in assay [2]; 18 µM in assay [3]; 14.1 µM in assay [4]; 2.87 µM in assay [5]; 34 µM in assay [6]. Also, the values for the GI50 in assay [7] and in assay [8] were 35.9 µM and 16.6 µM, respectively. The TGI in assay [1] is over 95 µM; in assay [2] it was over 95 µM; in assay [3], over 95 µM; in assay [4] it was over 95 µM; in assay [5] it was 43.6 µM; in assay [6] it was over 95 µM. Moreover, the TGI in assay [7] and in assay [8] was over 95 µM throughout.

Consider `CC1(C)N=C(N)N=C(N)N1c1ccc(CNC(=O)Nc2ccc(S(=O)(=O)F)c(Cl)c2)c(Cl)c1`, for which the GI50 in assay [1] is 0.585 µM; in assay [2], 0.686 µM; in assay [3], 0.56 µM; in assay [4], 0.303 µM; in assay [5], 3.47 µM; in assay [6], 8.51 µM. The GI50 in assay [7] is 15.6 µM; in assay [8], 0.122 µM. Besides, the TGI in assay [1], in assay [2], in assay [3], in assay [4], in assay [5] and in assay [6] was over 100 µM each time. Besides, the TGI in assay [7] and in assay [8] was over 100 µM each time.

As for `NCCCCC(NC(=O)C(N)CCCN=C(N)N)C(=O)NC(CCCCN)C(=O)NC(CCCN=C(N)N)C(=O)NC(CCCN=C(N)N)C(=O)NC(CCC(N)=O)C(=O)NC(CCCN=C(N)N)C(=O)NC(CCCN=C(N)N)C(=O)NC(CCCN=C(N)N)C(=O)NCC(=O)NCC(=O)O` (centres undefined), the GI50 in assay [1], in assay [2], in assay [3], in assay [4], in assay [5] and in assay [6] was over 50 µM in each case. The GI50 in assay [7] and in assay [8] was over 50 µM throughout. Moreover, the TGI in assay [1], in assay [2], in assay [3], in assay [4], in assay [5] and in assay [6] was over 50 µM throughout. Besides, the TGI in assay [7] and in assay [8] was over 50 µM in each case.
